Results reported in patent US20230129359A1, “MUSCARINIC RECEPTOR 4 ANTAGONISTS AND METHODS OF USE” (Neurocrine Biosciences, Inc., priority 2020, published 2023).

Target: T1, human M4 receptor (Homo sapiens, UniProt P08173)
T1 construct: expressed in transfected cells; host or cells: CHO cells
T1 sequence (P08173 1-479): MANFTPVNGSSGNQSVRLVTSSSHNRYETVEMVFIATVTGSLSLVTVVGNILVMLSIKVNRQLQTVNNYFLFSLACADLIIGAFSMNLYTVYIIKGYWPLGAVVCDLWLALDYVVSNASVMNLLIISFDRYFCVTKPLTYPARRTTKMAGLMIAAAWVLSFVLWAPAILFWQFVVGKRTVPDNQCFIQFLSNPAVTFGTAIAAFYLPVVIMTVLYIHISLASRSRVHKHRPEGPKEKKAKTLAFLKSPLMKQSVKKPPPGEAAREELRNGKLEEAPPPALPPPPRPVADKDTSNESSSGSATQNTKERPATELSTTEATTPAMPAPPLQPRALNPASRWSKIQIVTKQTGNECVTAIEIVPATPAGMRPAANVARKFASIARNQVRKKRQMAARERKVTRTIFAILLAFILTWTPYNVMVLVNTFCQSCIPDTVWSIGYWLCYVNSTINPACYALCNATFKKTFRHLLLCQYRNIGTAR
Assay: Radioligand ([3H]N-methylscopolamine) binding assay, membranes from CHO cells expressing human M4 receptor
Conditions: Ki against human M4 receptor; membranes from CHO cells; tritiated N-methylscopolamine 1.5 nM; read-out: K
Description: Binding affinity (Ki) for the compounds was measured by inhibition of radioligand binding to membranes from CHO cells expressing human M4 receptor. Membranes were prepared by nitrogen cavitation and differential centrifugation as previously described (Hoare et al., Mol. Pharmacol. 2003 March; 63(3): 751-65). The radioligand employed was tritiated N-methylscopolamine, used at a concentration of 1.5 nM. A dose-response of twelve concentrations of compound was used, ranging from […]. The assay buffer was 50 mM HEPES, 100 mM NaCl, 5 mM MgCl2, 1 mM ethylenediaminetetraacetic acid, pH-adjusted to pH 7.4. Membranes, radioligand and compound were incubated together for 90 minutes at 37° C., in a total volume of 150 μL in a 96-well plate. Receptor-bound radioligand was then collected by harvesting the assay over glass fiber filters pretreated with polyethylenimine to trap the cell membranes, using rapid vacuum filtration. Harvesting and radioactivity counting was conducted as previously described (see, e.g., Hoare et al., Mol. Pharmacol. 2003 63(3):751-65); Erratum at Mol. Pharmacol. 2005 July; 68(1): 260).

| Structure (SMILES) | Ki |
| --- | --- |
| C[C@@H]1CN(c2ncc(C(F)(F)F)cn2)[C@@H](C)CN1C(=O)NC1CC2(C1)CN(Cc1ccccc1)C2 [Compound 1, (2R,5S)—N-{2-Benzyl-2-azaspiro[3.3]heptan-6-yl}-2,5-dimethyl-4-[5-(trifluoromethyl)pyrimidin-2-yl]piperazine-1-carboxamide] | < 10 nM |
| C[C@H]1CN(c2ncc(C(F)(F)F)cn2)CCN1C(=O)NC1CC2(C1)CN(Cc1ccccc1)C2 [Compound 5, (2S)-N-{2-benzyl-2-azaspiro[3.3]heptan-6-yl}-2-methyl-4-[5-(trifluoromethyl)pyrimidin-2-yl]piperazine-1-carboxamide] | 10 to 100 nM |
| C[C@H]1CN(C(=O)NC2CC3(C2)CN(Cc2ccccc2)C3)CCN1c1ncc(C(F)(F)F)cn1 [Compound 6, (3S)-N-{2-benzyl-2-azaspiro[3.3]heptan-6-yl}-3-methyl-4-[5-(trifluoromethyl)pyrimidin-2-yl]piperazine-1-carboxamide] | 10 to 100 nM |
| C[C@@H]1CN(c2ncc(C(F)(F)F)cn2)CCN1C(=O)NC1CC2(C1)CN(Cc1ccccc1)C2 [Compound 7, (2R)-N-{2-benzyl-2-azaspiro[3.3]heptan-6-yl}-2-methyl-4-[5-(trifluoromethyl)pyrimidin-2-yl]piperazine-1-carboxamide] | 10 to 100 nM |
| C[C@@H]1CN(c2ccc(F)c(C#N)c2)CCN1C(=O)NC1CC2(C1)CN(Cc1ccccc1)C2 [Compound 12, (2R)-N-{2-benzyl-2-azaspiro[3.3]heptan-6-yl}-4-(3-cyano-4-fluorophenyl)-2-methylpiperazine-1-carboxamide] | 10 to 100 nM |
| C[C@@H]1CN(c2ccc(OC(F)(F)F)c(C#N)c2)CCN1C(=O)NC1CC2(C1)CN(Cc1ccccc1)C2 [Compound 13, (2R)-N-{2-benzyl-2-azaspiro[3.3]heptan-6-yl}-4-[3-cyano-4-(trifluoromethoxy)phenyl]-2-methylpiperazine-1-carboxamide] | < 10 nM |
| C[C@@H]1CN(c2cnc(C(F)(F)F)cn2)CCN1C(=O)NC1CC2(C1)CN(Cc1ccccc1)C2 [Compound 22, (2R)-N-{2-benzyl-2-azaspiro[3.3]heptan-6-yl}-2-methyl-4-[5-(trifluoromethyl)pyrazin-2-yl]piperazine-1-carboxamide] | 100 to 1000 nM |
| C[C@@H]1CN(c2ncc(C#N)cn2)[C@@H](C)CN1C(=O)NC1CC2(C1)CN(Cc1ccccc1)C2 [Compound 26, (2R,5S)-N-{2-benzyl-2-azaspiro[3.3]heptan-6-yl}-4-(5-cyanopyrimidin-2-yl)-2,5-dimethylpiperazine-1-carboxamide] | 10 to 100 nM |
| C[C@@H]1CN(c2cnc(C(F)(F)F)cn2)[C@@H](C)CN1C(=O)NC1CC2(C1)CN(Cc1ccccc1)C2 [Compound 35, (2R,5S)-N-{2-benzyl-2-azaspiro[3.3]heptan-6-yl}-2,5-dimethyl-4-[5-(trifluoromethyl)pyrazin-2-yl]piperazine-1-carboxamide] | 10 to 100 nM |
| C[C@@H]1CN(C(=O)NC2CC3(C2)CN(Cc2ccccc2)C3)[C@@H](C)CN1c1ncc(C(F)(F)F)cn1 [Compound 36, (2S,5R)-N-{2-benzyl-2-azaspiro[3.3]heptan-6-yl}-2,5-dimethyl-4-[5-(trifluoromethyl)pyrimidin-2-yl]piperazine-1-carboxamide] | 10 to 100 nM |
| C[C@@H]1CN(C(=O)NC2CC3(C2)CN(Cc2ccccc2)C3)[C@@H](C)CN1c1cnc(C(F)(F)F)cn1 [Compound 37, (2S,5R)-N-{2-benzyl-2-azaspiro[3.3]heptan-6-yl}-2,5-dimethyl-4-[5-(trifluoromethyl)pyrazin-2-yl)piperazine-1-carboxamide] | 10 to 100 nM |
| C[C@@H]1CN(c2ncc(C(F)(F)F)cn2)[C@H](C)CN1C(=O)NC1CC2(C1)CN(Cc1ccccc1)C2 [Compound 38, (2R,5R)-N-{2-benzyl-2-azaspiro[3.3]heptan-6-yl}-2,5-dimethyl-4-[5-(trifluoromethyl)pyrimidin-2-yl]piperazine-1-carboxamide] | 10 to 100 nM |
| C[C@@H]1CN(c2cc(F)c(F)c(F)c2)CCN1C(=O)NC1CC2(C1)CN(Cc1ccccc1)C2 [Compound 44, (2R)-N-{2-benzyl-2-azaspiro[3.3]heptan-6-yl}-2-methyl-4-(3,4,5-trifluorophenyl)piperazine-1-carboxamide] | 10 to 100 nM |
| C[C@@H]1CN(c2cc(F)c(F)c(F)c2)C[C@H](C)N1C(=O)NC1CC2(C1)CN(Cc1ccccc1)C2 [Compound 45, (2R,6S)-N-{2-benzyl-2-azaspiro[3.3]heptan-6-yl}-2,6-dimethyl-4-(3,4,5-trifluroophenyl)piperazine-1-carboxamide] | < 10 nM |
| C[C@@H]1CN(c2ccc(C(F)(F)F)cc2)C[C@H](C)N1C(=O)NC1CC2(C1)CN(Cc1ccccc1)C2 [Compound 47, (2R,6S)-N-{2-benzyl-2-azaspiro[3.3]heptan-6-yl}-2,6-dimethyl-4-[4-(trifluoromethyl)phenyl]pipera-zine-1-carboxamide] | < 10 nM |
| C[C@@H]1CN(c2ccc(C(F)(F)F)cc2)C[C@@H](C)N1C(=O)NC1CC2(C1)CN(Cc1ccccc1)C2 [Compound 51, (2R,6R)-N-{2-benzyl-2-azaspiro[3.3]heptan-6-yl}-2,6-dimethyl-4-[4-(trifluoromethyl)phenyl]pipera-zine-1-carboxamide] | < 10 nM |
| C[C@@H]1CN(c2cnc(C(F)(F)F)cn2)C[C@H](C)N1C(=O)NC1CC2(C1)CN(Cc1ccccc1)C2 [Compound 62, (2R,6S)—N-{2-Benzyl-2-azaspiro[3.3]heptan-6-yl}-2,6-dimethyl-4-[5-(trifluoromethyl)pyrazin-2-yl]piperazine-1-carboxamide] | 10 to 100 nM |
| C[C@@H]1CN(c2cnc(C(F)(F)F)cn2)C[C@@H](C)N1C(=O)NCC1CC2(C1)CN(Cc1ccccc1)C2 [Compound 63, (2R,6R)-N-({2-benzyl-2-azaspiro[3.3]heptan-6-yl}methyl)-2,6-dimethyl-4-[5-(trifluoromethyl)pyrazin-2-yl]piperazine-1-carboxamide] | 100 to 1000 nM |
| C[C@@H]1CN(c2cnc(C(F)(F)F)cn2)C[C@@H](C)N1C(=O)NC1CC2(C1)CN(Cc1ccccc1)C2 [Compound 64, (2R,6R)-N-{2-benzyl-2-azaspiro[3.3]heptan-6-yl}-2,6-dimethyl-4-[5-(trifluoromethyl)pyrazin-2-yl]piperazine-1-carboxamide] | 100 to 1000 nM |
| C[C@@H]1CN(c2ncc(C(F)(F)F)cn2)C[C@@H](C)N1C(=O)NC1CC2(C1)CN(Cc1ccccc1)C2 [Compound 65, (2R,6R)-N-{2-benzyl-2-azaspiro[3.3]heptan-6-yl}-2,6-dimethyl-4-[5-(trifluoromethyl)pyrimidin-2-yl]piperazine-1-carboxamide] | < 10 nM |
| C[C@@H]1CN(c2ncc(C#N)cn2)C[C@H](C)N1C(=O)NC1CC2(C1)CN(Cc1ccccc1)C2 [Compound 66] | 100 to 1000 nM |
| C[C@@H]1CN(c2cnc(C(F)(F)F)cn2)C[C@H](C)N1C(=O)NCC1CC2(C1)CN(Cc1ccccc1)C2 [Compound 67, (2R,6S)-N-({2-benzyl-2-azaspiro[3.3]hpetan-6-yl}methyl)-2,6-dimethyl-4-[5-(trifluoromethyl)pyrazin-2-yl]piperazine-1-carboxamide] | 100 to 1000 nM |
| C[C@@H]1CN(c2ncc(C(F)(F)F)cn2)C[C@@H](C)N1C(=O)NCC1CC2(C1)CN(Cc1ccccc1)C2 [Compound 68, (2R,6R)-N-({2-benzyl-2-azaspiro[3.3]heptan-6-yl}methyl)-2,6-dimethyl-4-[5-(trifluoromethyl)pyrimidin-2-yl]piperazine-1-carboxamide] | 10 to 100 nM |
| C[C@@H]1CN(c2ncc(C(F)(F)F)cn2)C[C@H](C)N1C(=O)NCC1CC2(C1)CN(Cc1ccccc1)C2 [Compound 97, (2R,6S)-N-({2-benzyl-2-azaspiro[3.3]heptna-6-yl}methyl)-2,6-dimethyl-4-[5-(trifluoromethyl)pyrimidin-2-yl]piperazine-1-carboxamide] | 10 to 100 nM |
| O=C(OC1CC2(C1)CN(Cc1ccccc1)C2)N1CCN(c2cc(F)c(F)c(F)c2)CC1 [Compound 105, 2-benzyl-2-azaspiro[3.3]heptan-6-yl 4-(3,4,5-trifluorophenyl)piperazine-1-carboxylate] | 100 to 1000 nM |
| O=C(OC1CC2(C1)CN(Cc1ccccc1)C2)N1CCN(c2ccc(OC(F)(F)F)cc2)CC1 [Compound 108, 2-benzyl-2-azaspiro[3.3]heptan-6-yl 4-[4-(trifluoromethoxy)phenyl]piper-azine-1-carboxylate] | 100 to 1000 nM |
| O=C(OC1CC2(C1)CN(Cc1ccccc1)C2)N1C2CC1CN(c1cnc(C(F)(F)F)cn1)C2 [Compound 110, 2-benzyl-2-azaspiro[3.3]heptan-6-yl 3-[5-(trifluoromethyl)pyrazin-2-yl]-3,6-diazabicyclo[3.1.1]heptane-6-carboxylate] | 100 to 1000 nM |
